Patent US4542169A, “Biomedical devices containing isothiazolones to control bacteria growth” (Rohm and Haas Company, priority 1983, dated 1985)
In brackets after ≈: the same amount, converted by molar mass.

What was measured:
[1] = tested on: Staphlococcus aureus (S.a); test: Zone of inhibition, polyvinyl chloride film discs on inoculated agar; assay type: cell-based; conditions: for Zone of Inhibition: PVC film; for Zones: PVC
Description: (§1) In a two-liter, three-necked, round-bottom, flask equipped with a mechanical stirrer was placed 100 g of polyvinyl chloride, 590 g of reagent grade tetrahydrofuran, and 40.0 g of dioctylphthalate. This was stirred with gentle heating (35°-40° C.) for two hours to completely dissolve the polyvinyl chloride. Then, a barium/calcium salt of a fatty acid (3.5 g), a phosphite chelating agent (1.5 g), stearic Acid (0.25 g) and epoxidized soy bean oil (7.5 g), were mixed with 21 g of tetrahydrofuran and added to the polyvinyl chloride solution. After stirring at room temperature for 30 minutes, the solution was ready for use.
(§2) Films containing the isothiazolones were cast by first preparing a 0.5 weight percent polyvinyl chloride solution by adding the isothiazolone to the polyvinyl chloride solution. Then, portions of the 0.5% solution were diluted to 0.1 and 0.05%. The films were drawn down on 12"×12" glass plates using a 50 mil-3" wide coating bar and the films were allowed to air dry for 48 hours.
(§3) The films were cut into 1.25 cm discs and placed in agar plates inoculated with Staphlococcus aureus (S.a) or Echerichia coli (E.c.).

Echerichia coli (E.c.) = test: as above; assay type: cell-based; conditions: for Zone of Inhibition: PVC film; for Zones: PVC
Description: as §1, §2, §3

Aspergillis niger (A.n.) [2] = test: Growth of fungus on polyvinyl chloride film; assay type: cell-based; set-up: key: 0: zero (no growth); 5: five (heavy growth); conditions: PVC film
Description: as §1, §2
(§4) In addition to zones of inhibition, the films were observed by growth of fungus on the film and rated from zero (no growth) to five (heavy growth).

[3] = tested on: Aerobasidium pullulans (A.p); test: Growth of fungus on polyvinyl chloride film; assay type: cell-based; set-up: key: 0: zero (no growth); 5: five (heavy growth); conditions: PVC film
Description: as §1, §2, §4

Solubility in H2O = assay type: physicochemical; conditions: water
Aspergillis niger (A.n.) [4] = test: Zone of inhibition, polyvinyl chloride film; assay type: cell-based; conditions: PVC film
[5] = tested on: Aerobasidium pullulans (A.p); test: Zone of inhibition, polyvinyl chloride film; assay type: cell-based; conditions: PVC film
Aspergillus niger = test: Minimum inhibitory concentration, fungistatic activity; assay type: cell-based; conditions: Table III: Active Ingredient MIC
Escherichia coli = test: Minimum inhibitory concentration, bacteriostatic activity; assay type: cell-based; conditions: Table III: Active Ingredient MIC
Aureobasidium pullulans = test: Minimum inhibitory concentration, fungistatic activity; assay type: cell-based; conditions: Table III: Active Ingredient MIC
Candida albicans (yeast) = test: as above; assay type: cell-based; conditions: Table III: Active Ingredient MIC
Staphylococcus aureus = test: Minimum inhibitory concentration, bacteriostatic activity; assay type: cell-based; conditions: Table III: Active Ingredient MIC
E.c. = test: Zone of inhibition, silicone rubber film discs on inoculated agar; assay type: cell-based, Echerichia coli; conditions: for Zone of Inhibition: silicone rubber film; for Zones: Silicone
Excerpt: as §3
(§5) The films were cut into discs and tested as in example one against S.a. and E.c.

Pseudomonas aeruginosa = test: Minimum inhibitory concentration, bacteriostatic activity; assay type: cell-based; conditions: Table III: Active Ingredient MIC
S.a. = test: Zone of inhibition, silicone rubber film discs on inoculated agar; assay type: cell-based, Staphlococcus aureus; conditions: S.a.; for Zone of Inhibition: silicone rubber film; for Zones: Silicone
Excerpt: as §3, §5

[6] = tested on: Pseudomonas aeruginosa (P.a.); test: Zone of inhibition, polyvinyl chloride (vinyl) film discs; assay type: cell-based; conditions: PVC
Description: as §1, §3
Discs were tested against Pseudomonas aeruginosa (P.a.). The 1.0% films gave a slight zone of inhibition while the 5.0% film gave a 1 mm zone of inhibition.

P.a. = test: Zone of inhibition, silicone film; assay type: cell-based, Pseudomonas aeruginosa

**Q.** Which “Zone of Inhibition” value ([1]; 0.05%) does the source give for `O=c1c(Cl)c(Cl)sn1Cc1ccccc1` [Compound 2, 4,5-Dichloro-N--benzyl-isothiazolin-3-one] here?
**A.** 2.0 mm

**Q.** And the “Zone of Inhibition” value ([1]; 0.1%)?
**A.** 3.8 mm

**Q.** And the “Zone of Inhibition” value (Echerichia coli (E.c.); 0.05%)?
**A.** 0 mm

**Q.** And the “Zone of Inhibition” value (Echerichia coli (E.c.); 0.1%)?
**A.** 0 mm

**Q.** And the “Zone of Inhibition” value (Echerichia coli (E.c.); 0.5%)?
**A.** 3.3 mm

**Q.** What about the “Growth on Film” value (Aspergillis niger (A.n.) [2]; 0.05%) of the same compound?
**A.** 4

**Q.** What about the “Growth on Film” value (Aspergillis niger (A.n.) [2]; 0.1%) of the same compound?
**A.** 0

**Q.** What about the “Growth on Film” value (Aspergillis niger (A.n.) [2]; 0.5%) of the same compound?
**A.** 0

**Q.** And the “Growth on Film” value ([3]; 0.05%)?
**A.** 4

**Q.** What about the “Growth on Film” value ([3]; 0.1%) of the same compound?
**A.** 0

**Q.** And the “Growth on Film” value ([3]; 0.5%)?
**A.** 0

**Q.** What about the solubility (Solubility in H2O) of the same compound?
**A.** 195 µg/mL (≈ 750 µM)

**Q.** And the “Zone of Inhibition” value (Aspergillis niger (A.n.) [4]; 0.05%)?
**A.** 0 mm

**Q.** And the “Zone of Inhibition” value (Aspergillis niger (A.n.) [4]; 0.1%)?
**A.** 0 mm

**Q.** What about the “Zone of Inhibition” value (Aspergillis niger (A.n.) [4]; 0.5%) of the same compound?
**A.** 4.3 mm

**Q.** And the “Zone of Inhibition” value ([5]; 0.05%)?
**A.** 0 mm

**Q.** And the “Zone of Inhibition” value ([5]; 0.1%)?
**A.** 0 mm

**Q.** And the “Zone of Inhibition” value ([5]; 0.5%)?
**A.** 4.8 mm

**Q.** Which results are given for `CCCCCCn1sc(Cl)c(Cl)c1=O` [Compound 4, 4,5-Dichloro-N--n-hexyl-isothiazolin-3-one]?
**A.** Zone of Inhibition ([1]; 0.05%): 1.3 mm; Zone of Inhibition ([1]; 0.1%): 2.3 mm; Zone of Inhibition ([1]; 0.5%): 9.3 mm; Zone of Inhibition (Echerichia coli (E.c.); 0.05%): 0 mm; Zone of Inhibition (Echerichia coli (E.c.); 0.1%): 0 mm; Zone of Inhibition (Echerichia coli (E.c.); 0.5%): 0.8 mm; Growth on Film (Aspergillis niger (A.n.) [2]; 0.05%): 0; Growth on Film (Aspergillis niger (A.n.) [2]; 0.1%): 0; Growth on Film (Aspergillis niger (A.n.) [2]; 0.5%): 0; Growth on Film ([3]; 0.05%): 3; Growth on Film ([3]; 0.1%): 0; Growth on Film ([3]; 0.5%): 0; solubility (Solubility in H2O): 143 µg/mL (≈ 563 µM); Zone of Inhibition (Aspergillis niger (A.n.) [4]; 0.05%): 0 mm; Zone of Inhibition (Aspergillis niger (A.n.) [4]; 0.1%): 0 mm; Zone of Inhibition (Aspergillis niger (A.n.) [4]; 0.5%): 3.8 mm; Zone of Inhibition ([5]; 0.05%): 0 mm; Zone of Inhibition ([5]; 0.1%): 0 mm; Zone of Inhibition ([5]; 0.5%): 2.8 mm

**Q.** For `CCCCCCCCn1sc(Cl)c(Cl)c1=O` [Compound 5, 4,5-Dichloro-N--n-octyl-isothiazolin-3-one], which “Zone of Inhibition” value ([1]; 0.05%) is on record?
**A.** 0 mm

**Q.** What about the “Zone of Inhibition” value ([1]; 0.1%) of the same compound?
**A.** 0.3 mm

**Q.** And the “Zone of Inhibition” value ([1]; 0.5%)?
**A.** 3.3 mm

**Q.** And the “Zone of Inhibition” value (Echerichia coli (E.c.); 0.05%)?
**A.** 0 mm

**Q.** What about the “Zone of Inhibition” value (Echerichia coli (E.c.); 0.1%) of the same compound?
**A.** 0 mm

**Q.** And the “Zone of Inhibition” value (Echerichia coli (E.c.); 0.5%)?
**A.** 0 mm

**Q.** And the MIC (Aspergillus niger)?
**A.** 9 µg/mL (≈ 31.9 µM)

**Q.** What about the “Growth on Film” value (Aspergillis niger (A.n.) [2]; 0.05%) of the same compound?
**A.** 5

**Q.** What about the “Growth on Film” value (Aspergillis niger (A.n.) [2]; 0.1%) of the same compound?
**A.** 3

**Q.** What about the “Growth on Film” value (Aspergillis niger (A.n.) [2]; 0.5%) of the same compound?
**A.** 0

**Q.** What about the “Growth on Film” value ([3]; 0.05%) of the same compound?
**A.** 5

**Q.** And the “Growth on Film” value ([3]; 0.1%)?
**A.** 3

**Q.** What about the “Growth on Film” value ([3]; 0.5%) of the same compound?
**A.** 1

**Q.** What about the MIC (Escherichia coli) of the same compound?
**A.** 16 µg/mL (≈ 56.7 µM)

**Q.** And the “Zone of Inhibition” value (Aspergillis niger (A.n.) [4]; 0.05%)?
**A.** 0 mm

**Q.** What about the “Zone of Inhibition” value (Aspergillis niger (A.n.) [4]; 0.1%) of the same compound?
**A.** 0 mm

**Q.** And the “Zone of Inhibition” value (Aspergillis niger (A.n.) [4]; 0.5%)?
**A.** 0 mm

**Q.** And the MIC (Aureobasidium pullulans)?
**A.** 5 µg/mL (≈ 17.7 µM)

**Q.** And the MIC (Candida albicans (yeast))?
**A.** 5 µg/mL (≈ 17.7 µM)

**Q.** What about the “Zone of Inhibition” value ([5]; 0.05%) of the same compound?
**A.** 0 mm

**Q.** And the “Zone of Inhibition” value ([5]; 0.1%)?
**A.** 0 mm

**Q.** And the “Zone of Inhibition” value ([5]; 0.5%)?
**A.** 0 mm

**Q.** And the MIC (Staphylococcus aureus)?
**A.** 4 µg/mL (≈ 14.2 µM)

**Q.** And the “Zone of Inhibition” value (E.c.; Conc. 10)?
**A.** 0 mm

**Q.** What about the “Zone of Inhibition” value (E.c.; Conc. 100) of the same compound?
**A.** 0 mm

**Q.** And the “Zone of Inhibition” value (E.c.; Conc. 1000)?
**A.** 0.8 mm

**Q.** And the MIC (Pseudomonas aeruginosa)?
**A.** 16 µg/mL (≈ 56.7 µM)

**Q.** And the “Zone of Inhibition” value (S.a.; Conc. 10)?
**A.** 0 mm

**Q.** What about the “Zone of Inhibition” value (S.a.; Conc. 100) of the same compound?
**A.** 1.8 mm

**Q.** What about the “Zone of Inhibition” value (S.a.; Conc. 1000) of the same compound?
**A.** 8.8 mm

**Q.** Which results are given for Gentamycin sulfate [reference compound]?
**A.** Zones ([1]; .04%): slight; Zones (Echerichia coli (E.c.); 5.0%): 9.3 mm; Zones (Echerichia coli (E.c.); .04%): 0 mm; Zones ([6]; 5.0%): 6.8 mm; Zones ([6]; .04%): 0 mm; Zones ([6]; .20%): 3.3 mm

**Q.** What does the source list for `CCN1CCN(C(=O)N[C@@H](C(=O)N[C@@H]2C(=O)N3[C@@H]2SC(C)(C)[C@@H]3C(=O)O)c2ccccc2)C(=O)C1=O` [P, Piperacillin Na, reference compound]?
**A.** Zones ([1]; 1.0%): slight; Zones ([1]; 5.0%): 13.8 mm; Zones ([1]; .04%): 0 mm; Zones ([1]; .20%): 0 mm; Zones (Echerichia coli (E.c.); 1.0%): 0 mm; Zones (Echerichia coli (E.c.); .04%): 0 mm; Zones (Echerichia coli (E.c.); .20%): 0 mm; Zones (P.a.; 1.0%): 5.3 mm; Zones (P.a.; 5.0%): 13.3 mm; Zones (P.a.; .04%): 0 mm; Zones (P.a.; .20%): 0 mm; Zones (E.c.; 1.0%): 13.3 mm; Zones (E.c.; 5.0%): 17.3 mm; Zones (E.c.; .04%): 0 mm; Zones (E.c.; .20%): 0.8 mm; Zones (S.a.; 1.0%): 14.8 mm; Zones (S.a.; 5.0%): 21.3 mm; Zones (S.a.; .04%): 0 mm; Zones (S.a.; .20%): 0 mm; Zones ([6]; 1.0%): 0 mm; Zones ([6]; 5.0%): 9.8 mm; Zones ([6]; .04%): 0 mm; Zones ([6]; .20%): 0 mm
